Source: patent US20250085300A1, “STABILITY-ENHANCING COMPOSITIONS AND METHODS OF PREPARING COMPOUNDS” (FOGHORN THERAPEUTICS INC., priority 2021, published 2025)
Entries after “also recorded” stand apart in the source; their conditions may differ.

Legend:
[1] = molecular target: T1, Nanoluciferase-BRD9 fusion protein (Homo sapiens, UniProt Q9H8M2); assay: SYO1 BRD9 NanoLuc degradation assay; type: cell-based; conditions: 6 hours
T1 construct: expressed in transfected cells
Method: Procedure: A stable SYO-1 cell line expressing 3×FLAG-NLuc-BRD9 was generated. On day 0 cells were seeded in 30 μL media into each well of 384-well cell culture plates. The seeding density was 8000 cells/well. On day 1, cells were treated with 30 nL DMSO or 30 nL of 3-fold serially DMSO-diluted compounds (10 points in duplicates with 1 μM as final top dose). Subsequently plates were incubated for 6 hours in a standard tissue culture incubator and equilibrated at room temperature for 15 minutes. Nanoluciferase activity was measured by adding 15 μL of freshly prepared Nano-Glo Luciferase Assay Reagent (Promega N1130), shaking the plates for 10 minutes and reading the bioluminescence using an EnVision reader.
Results: The Inhibition % was calculated using the following formula: % Inhibition=100×(LumHC−LumSample)/(LumHC−LumLC). DMSO treated cells are employed as High Control (HC) and 1 μM of a known BRD9 degrader standard treated cells are employed as Low Control (LC).

BRD9 = molecular target: T2, BRD9 (Homo sapiens, UniProt Q9H8M2); assay: BRD9 western blot in synovial sarcoma tumors in vivo (Example 11); design: species or system mice; conditions: 1 mg/kg i.p. for 4 weeks
T2 construct: Tumors were lysed with 1×RIPA lysis buffer; from tissue; host or cells: SYO-1 xenograft tumours from BALB/c Nude mice
T2 sequence (Q9H8M2 1-597): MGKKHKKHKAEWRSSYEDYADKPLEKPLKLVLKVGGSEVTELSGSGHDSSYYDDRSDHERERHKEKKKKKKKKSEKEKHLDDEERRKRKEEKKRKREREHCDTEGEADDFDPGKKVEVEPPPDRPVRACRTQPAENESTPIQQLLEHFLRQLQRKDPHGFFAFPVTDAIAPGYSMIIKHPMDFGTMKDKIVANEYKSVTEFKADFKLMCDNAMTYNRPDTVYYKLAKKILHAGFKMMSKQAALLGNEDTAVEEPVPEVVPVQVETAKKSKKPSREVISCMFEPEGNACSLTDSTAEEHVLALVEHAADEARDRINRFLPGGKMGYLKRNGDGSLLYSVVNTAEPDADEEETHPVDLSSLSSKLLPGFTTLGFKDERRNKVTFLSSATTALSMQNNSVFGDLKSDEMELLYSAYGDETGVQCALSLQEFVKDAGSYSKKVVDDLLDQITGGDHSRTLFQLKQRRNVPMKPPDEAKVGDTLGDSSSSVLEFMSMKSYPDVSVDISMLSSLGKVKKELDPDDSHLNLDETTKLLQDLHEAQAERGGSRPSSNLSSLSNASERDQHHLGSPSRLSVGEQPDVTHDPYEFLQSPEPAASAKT
Method: Method: Mice were treated with D1, 1 mg/kg, i.p. for 4 weeks. Mice were then euthanized, and tumors were collected at 8 hours, 72 hours, and 168 hours post last dose. Tumors were lysed with 1x RIPA lysis buffer (Boston BioProducts, BP-115D) with protease and phosphatase protein inhibitor (Roche Applied Science #04906837001 & 05892791001). Equal amounts of lysate (30 μg) were loaded in 4-12% Bis-Tris Midi Protein Gels in 1×MOPS buffer; samples ran at 120 V for 120 minutes. Protein was transferred to membrane with TransBlot at 250 mA for 150 minutes, and then membranes were blocked with Odyssey blocking buffer for 1 hour at room temperature. Membranes were hybridized overnight in cold room with primary antibodies. Images acquired using Li-COR imaging system (Li-COR Biotechnology, Lincoln, Nebraska).

[2] = tested on: synovial sarcoma cell lines (SYO1, Yamato, HS-SY-II, and ASKA); assay: Growth of synovial sarcoma cell lines (Example 2: IncuCyte confluency, crystal violet, colonies); type: cell-based; conditions: 1 μM or indicated concentrations
Method: (§1) Cells were treated with DMSO or the BRD9 degrader, Compound 1, at indicated concentrations, and proliferation was monitored from day 7 to day 14 by measuring confluency over time using an IncuCyte live cell analysis system (FIG. 4). Growth medium and compounds were refreshed every 3-4 days.
(§2) Cells were seeded into 12-well plates and treated with DMSO, 1 μM BRD9 inhibitor, Compound 2 (also known as BI-7273, see Martin et al, J Med Chem. 59 (10): 4462-4475 (2016); see structure of compound 2 below), or 1 μM BRD9 degrader, Compound 1.
(§3) The number of cells was optimized for each cell line. Growth medium and compounds were refreshed every 3-5 days. SYO1, Yamato, A549, 293T and HS-SY-II cells were fixed and stained at day 11. ASKA cells were fixed and stained at day 23. Staining was done by incubation with crystal violet solution (0.5 g Crystal Violet, 27 ml 37% Formaldehyde, 100 mL 10×PBS, 10 mL Methanol, 863 dH20 to 1 L) for 30 min followed by 3×washes with water and drying the plates for at least 24 h at room temperature. Subsequently plates were scanned on an Odyssey CLx Imaging system (FIG. 5).
(§4) Cells were seeded into 96-well ultra-low cluster plate (Costar, #7007) in 200 μL complete media and treated at day 2 with DMSO, Staurosporin, or BRD9 degrader, Compound 1, at indicated doses (FIG. 2C). Media and compounds were changed every 5 d and cell colonies were imaged at day 14.

[3] = tested on: non-synovial control cancer cell lines (293T, A549, G401); assay: Growth of non-synovial control cancer cell lines (Example 2); type: cell-based
Method: as §1, §2, §3, §4

[4] = tested on: synovial sarcoma cell lines (SYO1, HS-SY-II, and ASKA); assay: Growth of synovial sarcoma cell lines, crystal violet day 14 (Example 3); type: cell-based; conditions: daily treatment
Method: (§5) Procedure: Cells were seeded into 6-well or 12-well plates and were treated daily with a BRD9 degrader (Compound 1), a bromo-domain BRD9 binder (Compound 2), E3 ligase binder (lenalidomide), DMSO, or staurosporin (positive control for cell killing), at indicated concentrations. The number of cells was optimized for each cell line. Growth media was refreshed every 5 days. By day 14, medium was removed, cells were washed with PBS, and stained using 500 μL of 0.005% (w/v) crystal violet solution in 25% (v/v) methanol for at least 1 hour at room temperature. Subsequently plates were scanned on an Odyssey CLx Imaging system.

[5] = tested on: non-synovial control cancer cell lines (RD, HCT116, and Calu6); assay: Growth of non-synovial control cancer cell lines, crystal violet day 14 (Example 3); type: cell-based; conditions: daily treatment
Method: as §5

SYO1 cells [6] = assay: Cell cycle analysis (Click-iT Plus EdU flow cytometry); type: cell-based; conditions: 200 nM or 1 μM, 8 or 13 days, compared to DMSO and lenalidomide
Method: (§6) Procedure: SYO1 cells were treated for 8 or 13 days with DMSO, a BRD9 degrader (Compound 1) at 200 nM or 1 μM, or an E3 ligase binder (lenalidomide) at 200 nM. Compounds were refreshed every 5 days. Cell cycle analysis was performed using the Click-iT™ Plus EdU Flow Cytometry Assay (Invitrogen). The apoptosis assay was performed using the Annexin V-FITC Apoptosis Detection Kit (Sigma A9210). Assays were performed according to the manufacturer's protocol.

SYO1 cells [7] = assay: Apoptosis assay (Annexin V-FITC); type: cell-based; conditions: 200 nM or 1 μM, 8 days, compared to DMSO controls
Method: as §6

T1 sequence (Q96SW2 whole entry partner, one chain of several, the tested form may be a part): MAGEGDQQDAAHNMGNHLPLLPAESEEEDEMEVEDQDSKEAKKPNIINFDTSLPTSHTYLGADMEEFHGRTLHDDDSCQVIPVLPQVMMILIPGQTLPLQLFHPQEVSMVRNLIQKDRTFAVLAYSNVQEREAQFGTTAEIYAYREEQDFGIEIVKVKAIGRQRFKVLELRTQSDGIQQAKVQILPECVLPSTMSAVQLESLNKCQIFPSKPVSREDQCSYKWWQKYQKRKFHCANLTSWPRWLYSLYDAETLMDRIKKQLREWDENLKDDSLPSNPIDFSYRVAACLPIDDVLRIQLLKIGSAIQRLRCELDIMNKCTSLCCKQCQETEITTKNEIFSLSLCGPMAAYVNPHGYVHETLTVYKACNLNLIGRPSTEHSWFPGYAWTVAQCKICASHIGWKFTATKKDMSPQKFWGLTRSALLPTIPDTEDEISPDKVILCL

SMILES | IC50 [1] | time after dose with complete degradation of BRD9 (BRD9) | BRD9 level in tumor (western blot) (BRD9; tumors 8, 72, 168 hours post last dose) | inhibition of cell growth [2] | inhibition of cell growth [3] | inhibition of cell growth [4] | inhibition of cell growth [5] | numbers of cells in the S-phase of the cell cycle (SYO1 cells [6]) | numbers of early- and late-apoptotic cells (SYO1 cells [7])
COc1cc(-c2cn(C)c(=O)c3cnc(N4CCC4)cc23)cc(OC)c1CN1CCC(CN2CCC3(CC2)CN(c2ccc4c(c2)C(=O)N(C2CCC(=O)NC2=O)C4)C3)CC1 (racemic) [Compound D1, 3-[6-(7-[[1-([4-[6-(azetidin-1-yl)-2-methyl-1-oxo-2,7-naphthyridin-4-yl]-2,6-dimethoxyphenyl]methyl)piperidin-4-yl]methyl]-2,7-diazaspiro[3.5]nonan-2-yl)-1-oxo-3H-isoindol-2-yl]piperidine-2,6-dione] | 130 pM | up to 168 hours | complete degradation | – | – | – | – | – | –
COc1cc(-c2cn(C)c(=O)c3cnccc23)cc(OC)c1CN(C)CC(=O)NCCOCCOCCNc1cccc2c1C(=O)N(C1CCC(=O)NC1=O)C2=O (stereo not shown) [Compound 1] | – | – | – | inhibition of the growth of the cells | does not result in inhibition of the growth | inhibition of the growth of the cells; also recorded: most significant growth inhibition | did not result in inhibition of the growth | reduced numbers of cells in the S-phase | increased numbers of early- and late-apoptotic cells
COc1cc(-c2cn(C)c(=O)c3cnccc23)cc(OC)c1CN(C)C [Compound 2] | – | – | – | inhibition of the growth of the cells | does not result in inhibition of the growth | inhibition of the growth of the cells | did not result in inhibition of the growth | – | –
